Laboratory results: patent US20050255509A1, “In vivo measurement of the relative fluxes through ribonucleotide reductase vs. deoxyribonucleoside pathways using isotopes” (KineMed, Inc., priority 2004, published 2005)

What was measured:
MCF7 cells = test: Cell proliferation in hydroxyurea-treated MCF7 cells (2H2O labeling and coulter counter); type: cell-based; details: 24 hours, hydroxyurea at various concentrations
[1] = molecular target: T1, ribonucleotide reductase (RR) (Homo sapiens, UniProt P23921+P31350); test: RR activity measured by 2H2O in SW1573 cells; type: cell-based; set-up: endogenous in cells; host or cells: SW1573 non-small cell lung carcinoma cells; details: 24 hours; for RR activity, % of control: level reached with increasing doses
T1 sequence (P23921 1-792): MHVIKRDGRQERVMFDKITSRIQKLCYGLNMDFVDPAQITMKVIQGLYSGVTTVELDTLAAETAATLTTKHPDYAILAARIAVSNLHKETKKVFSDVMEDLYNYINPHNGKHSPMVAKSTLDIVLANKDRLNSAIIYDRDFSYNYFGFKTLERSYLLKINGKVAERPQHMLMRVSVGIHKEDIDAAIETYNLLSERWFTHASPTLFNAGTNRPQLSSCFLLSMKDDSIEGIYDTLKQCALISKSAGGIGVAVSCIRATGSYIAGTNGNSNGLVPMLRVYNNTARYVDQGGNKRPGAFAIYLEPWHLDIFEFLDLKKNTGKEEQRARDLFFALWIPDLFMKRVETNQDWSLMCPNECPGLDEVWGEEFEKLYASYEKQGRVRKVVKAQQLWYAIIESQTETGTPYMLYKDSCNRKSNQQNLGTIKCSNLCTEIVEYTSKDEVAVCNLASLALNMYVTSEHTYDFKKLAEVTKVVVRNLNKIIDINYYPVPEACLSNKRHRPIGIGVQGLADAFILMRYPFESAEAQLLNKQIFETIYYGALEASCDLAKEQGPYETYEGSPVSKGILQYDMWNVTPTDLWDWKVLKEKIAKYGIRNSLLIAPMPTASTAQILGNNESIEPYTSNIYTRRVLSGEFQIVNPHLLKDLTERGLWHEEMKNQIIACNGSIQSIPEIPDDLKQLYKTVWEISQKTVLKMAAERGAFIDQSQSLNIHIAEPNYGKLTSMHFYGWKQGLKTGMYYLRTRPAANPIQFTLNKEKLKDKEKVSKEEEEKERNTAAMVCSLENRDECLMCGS
T1 sequence (P31350 1-389): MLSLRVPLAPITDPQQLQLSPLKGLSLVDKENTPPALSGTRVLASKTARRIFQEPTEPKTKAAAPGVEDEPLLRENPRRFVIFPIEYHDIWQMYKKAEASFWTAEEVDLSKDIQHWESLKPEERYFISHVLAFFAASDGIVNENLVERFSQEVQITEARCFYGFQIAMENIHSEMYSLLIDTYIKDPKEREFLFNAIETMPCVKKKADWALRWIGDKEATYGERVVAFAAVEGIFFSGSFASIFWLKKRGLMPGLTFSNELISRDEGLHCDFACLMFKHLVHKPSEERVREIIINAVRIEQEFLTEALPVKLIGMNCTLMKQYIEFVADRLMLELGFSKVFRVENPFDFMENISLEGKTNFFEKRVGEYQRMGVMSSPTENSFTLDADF
Method: Ribonucleotide reductase catalyzes the conversion of ribonucleotides to deoxyribonucleotides (FIG. 1A). A unique feature of RR is the response of nucleoside metabolism to its inhibition. When RR is inhibited, the activity of thymidine kinase is increased. […] Traditionally, this effect is assayed in vitro by measuring the increase in the concentration of free TTP pool relative to the other deoxynucleotides. […] The salvage of deoxyadenosine is very low in normal cells allowing the measurement of DNA synthesis from the incorporation of de novo deoxyadenosine (see supra); furthermore since dAk activity is not affected by RR inhibition it can be used as the denominator for calculating fractional de novo thymidine synthesis. The relative inhibition of RR can be inferred from the reduction in de novo thymidine incorporation relative to dA into DNA. In a preferred embodiment of the invention, once the isotopic enrichment of dA and dT have been determined (as described, supra) for both a test and control subject or sample, the ratio of dT enrichment to dA enrichment is compared.
(§1) Non-small cell lung carcinoma cells (SW1573) were grown under standard conditions to approximately 50% confluence. Media was removed and replaced with media containing 4% ^2H2O, 1 µM dN's and hydroxyurea or gemcitabine at various concentrations. Cells were grown for and additional 24 hours after which they were harvested and frozen. Cell proliferation and RR inhibition was performed as described, supra.

[2] = tested on: EMT7 mouse mammary carcinoma cells; test: In vivo tumor cell proliferation by 2H2O incorporation over 5 days of chemotherapy; details: balb/C mice with EMT7 tumors, 125 mg/kg Gem every other day or 500 mg/kg HU daily
Method: (§2) Female balb/C mice were implanted subcutaneously with approximately 10^6 EMT7 mouse mammary carcinoma cells in matrigel and allowed to reach ca.1500 mm^3. Mice were labeled with 2H2O with an i.p. bolus and treatment with either 125 mg/kg gemcitabine (Gem) or 500 mg/kg HU began. Gem was administered every other day, HU daily. At then end of 5 days tumors were removed, measured, homogenized and DNA was isolated as described, supra. Bone marrow was isolated using standard techniques. Bone marrow DNA was isolated as described, supra. GC/MS analysis was described as carried out, and calculations of RR activity and cell proliferation were carried out for both tumor and bone marrow tissues. Tumor volume was also measured by use of a caliper as is standard in the art.

[3] = tested on: EMT7 mouse mammary carcinoma cells; test: Tumor volume by caliper over 5 days of chemotherapy; type: in vivo; details: balb/C mice with EMT7 tumors, 125 mg/kg Gem every other day or 500 mg/kg HU daily
Method: as §2

[4] = molecular target: T2, ribonucleotide reductase (RR) (Mus musculus, UniProt P07742+P11157); test: RR inhibition in tumor and bone marrow of EMT7 tumor-bearing mice over 5 days of chemotherapy; type: in vivo; details: balb/C mice with EMT7 tumors, 125 mg/kg Gem every other day or 500 mg/kg HU daily, relative to untreated (control) mice
T2 construct: from tissue; host or cells: EMT7 mouse mammary carcinoma tumour and bone marrow of female balb/C mice
T2 sequence (P07742 1-792): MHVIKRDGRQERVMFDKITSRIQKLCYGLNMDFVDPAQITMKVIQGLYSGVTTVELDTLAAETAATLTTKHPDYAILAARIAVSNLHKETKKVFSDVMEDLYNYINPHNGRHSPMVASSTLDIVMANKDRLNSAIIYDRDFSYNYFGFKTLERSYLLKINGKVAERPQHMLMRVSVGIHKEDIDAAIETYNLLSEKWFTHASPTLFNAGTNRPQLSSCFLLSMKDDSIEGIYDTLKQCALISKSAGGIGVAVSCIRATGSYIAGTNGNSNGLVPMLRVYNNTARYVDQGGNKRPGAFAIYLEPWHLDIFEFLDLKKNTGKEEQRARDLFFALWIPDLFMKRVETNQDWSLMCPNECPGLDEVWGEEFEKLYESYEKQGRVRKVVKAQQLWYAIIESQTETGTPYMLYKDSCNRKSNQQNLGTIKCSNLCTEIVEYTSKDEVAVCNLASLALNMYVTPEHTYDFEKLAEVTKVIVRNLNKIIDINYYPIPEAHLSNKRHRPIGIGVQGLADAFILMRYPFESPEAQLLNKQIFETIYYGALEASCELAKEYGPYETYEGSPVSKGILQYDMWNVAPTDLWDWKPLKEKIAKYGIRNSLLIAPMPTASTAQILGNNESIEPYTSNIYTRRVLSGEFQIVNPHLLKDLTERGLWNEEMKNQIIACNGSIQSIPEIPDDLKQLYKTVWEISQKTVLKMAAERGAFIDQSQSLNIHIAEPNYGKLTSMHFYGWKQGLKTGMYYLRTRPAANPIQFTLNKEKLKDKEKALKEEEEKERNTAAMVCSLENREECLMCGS
T2 sequence (P11157 1-390): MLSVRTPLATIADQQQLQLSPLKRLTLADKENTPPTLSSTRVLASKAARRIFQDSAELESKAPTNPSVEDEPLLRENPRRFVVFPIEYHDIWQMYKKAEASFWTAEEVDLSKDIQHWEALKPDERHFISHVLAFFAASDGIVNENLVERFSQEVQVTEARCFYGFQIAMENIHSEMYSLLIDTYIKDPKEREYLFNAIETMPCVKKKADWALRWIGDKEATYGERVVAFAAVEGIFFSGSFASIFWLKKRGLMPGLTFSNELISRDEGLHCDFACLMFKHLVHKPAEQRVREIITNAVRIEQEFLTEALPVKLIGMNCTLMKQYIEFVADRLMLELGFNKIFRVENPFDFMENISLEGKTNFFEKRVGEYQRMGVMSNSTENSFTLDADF
Method: Female balb/C mice were implanted subcutaneously with approximately 10^6 EMT7 mouse mammary carcinoma cells in matrigel and allowed to reach ca.1500 mm^3.
as §2, with “Mice” for “Female balb/C mice were implanted subcutaneously with approximately 10^6 EMT7 mouse mammary carcinoma cells in matrigel and allowed to reach ca.1500 mm^3. Mice”

[5] = molecular target: T1, ribonucleotide reductase (RR); test: RR activity measured by 2H2O in hydroxyurea-treated MCF7 cells; type: cell-based; set-up: endogenous in cells; details: 24 hours
Method: Ribonucleotide reductase catalyzes the conversion of ribonucleotides to deoxyribonucleotides (FIG. 1A). A unique feature of RR is the response of nucleoside metabolism to its inhibition. When RR is inhibited, the activity of thymidine kinase is increased. […] Traditionally, this effect is assayed in vitro by measuring the increase in the concentration of free TTP pool relative to the other deoxynucleotides. […] In a preferred embodiment of the invention, once the isotopic enrichment of dA and dT have been determined (as described, supra) for both a test and control subject or sample, the ratio of dT enrichment to dA enrichment is compared.
Mammary carcinoma cells (MCF7) were grown under standard conditions to approximately 50% confluence. […] Cells continued to grow for 24 hours after which they were harvested, counted by coulter counter, and frozen.
Genomic DNA was isolated from frozen cells using a Qiagen Tissue Prep Kit according to the manufacturer's instructions. DNA digestion was performed after measuring the ratio of 260/280 to quantify the amount of isolated DNA. […]
HPLC Purification: dA and T were then isolated at room temperature by using a Waters HPLC system coupled with a UV detector. […] Normal nucleosides (dC, dG, dT, dA) were detected by UV absorption at 254 nm. […]

SW1573 cells = test: Cell proliferation measured by 2H2O in SW1573 cells; type: cell-based; details: 24 hours
Method: as §1

Row | concentration at which apparent maximal RR inhibition occurred [1] | inhibition at 6 µM [1] [%] | RR activity, % of control [1] | bone marrow cell RR activity [4] | tumor cell RR activity [4] | RR activity ([5]; doses 50 μM HU and above) | activity of RR ([5]; hydroxyurea at various concentrations) | inhibition at 0.0016 µM ([1]; 1.6 nM) [%] | RR activity ([1]; 48 nM) | SMILES | rate of cell proliferation (MCF7 cells) | tumor cell proliferation [2] | tumor volume [3] | concentration at which inhibition of cell proliferation was evident (SW1573 cells) [µM]
1 | 6 µM | 80 | −20 % of control | inhibited | inhibited | dramatically inhibited | reduces | – | – | NC(=O)NO [hydroxyurea] | reduces the rate of cell proliferation | effect of HU and Gem on cell proliferation is observed | no change | 20
2 | – | – | ~0 % of control | inhibited | inhibited | – | – | 70 | nearly abolishes | Nc1ccn([C@@H]2O[C@H](CO)[C@@H](O)C2(F)F)c(=O)n1 [gemcitabine] | – | effect of HU and Gem on cell proliferation is observed | no change | –
